Reference: ChEMBL document CHEMBL1201862, “PubChem BioAssay data set” (2004)
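All cell lines were grown in 96-well plates and treated with compound for 48 hours. Here, GI50 denotes the concentration required for 50% inhibition of growth.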 Activity calls are given as the source filed them. No stated cut-off is given here; in the data, active = GI50 up to about 1.1 µM and inactive = higher.

Legend:
Assay in all cases: NCI-60 cell line screen, 48 h
CAKI-1 = test system: CAKI-1
CCRF-CEM = test system: CCRF-CEM
COLO 205 = test system: COLO 205
DMS-273 = test system: DMS-273
HCT-116 = test system: HCT-116
HL-60 = test system: HL-60
HOP-92 = test system: HOP-92
HT-29 = test system: HT-29
IGROV-1 = test system: IGROV-1
LXFL 529 = test system: LXFL 529
M14 = test system: M14
Malme-3M = test system: Malme-3M
NCI-H23 = test system: NCI-H23
OVCAR-5 = test system: OVCAR-5
SF-268 = test system: SF-268
SNB-19 = test system: SNB-19
SNB-78 = test system: SNB-78
U-251 = test system: U-251
UO-31 = test system: UO-31

Measured: GI50

CCOc1ccc(/N=C/c2ccc3ccccc3n2)cc1
inactive: CAKI-1 > 100 µM | CCRF-CEM 35.7 µM | COLO 205 > 100 µM | DMS-273 > 100 µM | HCT-116 > 100 µM | HL-60 > 47.1 µM | HOP-92 > 75.3 µM | HT-29 > 100 µM | IGROV-1 > 100 µM | LXFL 529 > 100 µM | M14 > 100 µM | Malme-3M > 100 µM | NCI-H23 > 100 µM | OVCAR-5 > 100 µM | SF-268 > 100 µM | SNB-19 > 100 µM | SNB-78 > 100 µM | U-251 > 100 µM | UO-31 61.8 µM

COC1OC(CO)C(O)C(OC(C)=O)C1NC(=O)N(CCCl)N=O (configuration not stated)
inactive: CAKI-1 > 100 µM | CCRF-CEM > 100 µM | COLO 205 > 100 µM | DMS-273 > 100 µM | HCT-116 > 100 µM | HL-60 3.52 µM | HT-29 > 100 µM | IGROV-1 > 100 µM | LXFL 529 > 100 µM | M14 > 100 µM | Malme-3M > 100 µM | NCI-H23 > 100 µM | OVCAR-5 > 100 µM | SF-268 21.3 µM | SNB-19 > 100 µM | SNB-78 > 100 µM

Cc1cccc(NC(=O)/C(=N\NC(C)(C)C)C2NC(=S)NC2=O)c1C (configuration not stated)
inactive: CAKI-1 15.4 µM | CCRF-CEM > 100 µM | COLO 205 > 100 µM | HCT-116 > 100 µM | HL-60 > 100 µM | IGROV-1 > 100 µM | LXFL 529 > 100 µM | M14 > 100 µM | Malme-3M > 100 µM | OVCAR-5 > 100 µM | SNB-19 > 100 µM | SNB-78 > 100 µM | U-251 > 100 µM | UO-31 > 100 µM

O=C1Nc2ccc([N+](=O)[O-])cc2/C1=N/Nc1ccc([N+](=O)[O-])cc1
inactive: CAKI-1 20.5 µM | CCRF-CEM 72.1 µM | COLO 205 34.7 µM | DMS-273 10.7 µM | HOP-92 9.08 µM | HT-29 21.4 µM | IGROV-1 48.2 µM | LXFL 529 12.4 µM | M14 15.8 µM | NCI-H23 20.3 µM | SF-268 11.3 µM | SNB-19 17.6 µM | U-251 19.8 µM | UO-31 26.5 µM

O=S(=O)(Sc1ccc(Cl)cc1)c1ccc(Cl)cc1
inactive: CAKI-1 19.1 µM | CCRF-CEM 4.23 µM | COLO 205 17.7 µM | DMS-273 15.4 µM | HCT-116 14.9 µM | HL-60 13.6 µM | HOP-92 20.1 µM | HT-29 18.2 µM | IGROV-1 16.8 µM | LXFL 529 16 µM | M14 17.5 µM | Malme-3M 17.5 µM | NCI-H23 16 µM | OVCAR-5 19.9 µM | SF-268 7.16 µM | SNB-19 19.3 µM | SNB-78 24.2 µM | U-251 10.3 µM | UO-31 11.2 µM

CCN1CC2(C)CC[C@@H](OC)C34[C@@H]2[C@H](OC(C)=O)C2(OCO[C@@]25C[C@H](OC)C2C[C@]3(O)[C@@H]5[C@H]2O)[C@H]14
inactive: CAKI-1 > 100 µM | COLO 205 > 100 µM | HCT-116 > 100 µM | HL-60 > 100 µM | HOP-92 > 100 µM | HT-29 > 100 µM | LXFL 529 > 100 µM | M14 > 100 µM | Malme-3M > 100 µM | NCI-H23 > 100 µM | OVCAR-5 > 100 µM | SF-268 > 100 µM | SNB-19 > 100 µM | SNB-78 > 100 µM | U-251 > 100 µM | UO-31 > 100 µM

Cc1c(NC(=S)NC(=O)c2ccc([N+](=O)[O-])cc2)c(=O)n(-c2ccccc2)n1C
inactive: CAKI-1 > 100 µM | CCRF-CEM > 100 µM | COLO 205 > 100 µM | DMS-273 > 100 µM | HCT-116 > 100 µM | HL-60 > 100 µM | HOP-92 > 100 µM | HT-29 > 100 µM | IGROV-1 > 100 µM | LXFL 529 > 100 µM | M14 > 100 µM | Malme-3M > 100 µM | NCI-H23 > 100 µM | OVCAR-5 > 100 µM | SF-268 > 100 µM | SNB-19 > 100 µM | SNB-78 > 100 µM | U-251 > 100 µM | UO-31 > 100 µM

O=C1c2ccccc2C(=O)N1CCN(CCN1C(=O)c2ccccc2C1=O)Cc1ccccc1
inactive: CAKI-1 > 100 µM | CCRF-CEM > 100 µM | COLO 205 > 100 µM | DMS-273 > 100 µM | HCT-116 > 100 µM | HL-60 > 100 µM | HOP-92 68.2 µM | LXFL 529 > 100 µM | M14 > 100 µM | NCI-H23 > 100 µM | SF-268 > 100 µM | SNB-19 > 100 µM | SNB-78 > 100 µM | U-251 > 100 µM | UO-31 > 100 µM

CC1=C(O)C(=O)C2C(=O)C1C(C)C2c1ccccc1 (configuration not stated)
inactive: CAKI-1 > 100 µM | CCRF-CEM > 100 µM | COLO 205 > 100 µM | DMS-273 > 100 µM | HOP-92 > 100 µM | HT-29 > 100 µM | IGROV-1 > 100 µM | LXFL 529 > 100 µM | M14 > 100 µM | Malme-3M > 100 µM | NCI-H23 > 100 µM | OVCAR-5 > 100 µM | SF-268 > 100 µM | SNB-19 > 100 µM | SNB-78 > 100 µM | U-251 > 100 µM | UO-31 > 100 µM

O=C(O)C1CCc2nnc(-c3ccccc3)n21 (configuration not stated)
inactive: CAKI-1 > 100 µM | CCRF-CEM > 100 µM | COLO 205 > 100 µM | DMS-273 > 100 µM | HCT-116 > 100 µM | HL-60 > 100 µM | IGROV-1 > 100 µM | LXFL 529 > 100 µM | M14 > 100 µM | Malme-3M > 100 µM | SF-268 > 100 µM | SNB-19 > 100 µM | SNB-78 > 100 µM | U-251 > 100 µM | UO-31 > 100 µM

C=C(/C=C/C=C(\CO)CCC=C(C)C)[C@H]1CCC2([C@H](CCCO)/C(=C(/C)C=O)CC[C@]2(C)O)[C@H]1O (some centres not stated)
inactive: CAKI-1 > 100 µM | CCRF-CEM 38.2 µM | COLO 205 26.3 µM | DMS-273 > 100 µM | HCT-116 > 100 µM | HL-60 56.1 µM | HOP-92 3.56 µM | HT-29 > 100 µM | IGROV-1 > 100 µM | LXFL 529 > 100 µM | M14 > 100 µM | Malme-3M > 100 µM | NCI-H23 > 100 µM | OVCAR-5 > 100 µM | SNB-19 > 100 µM | SNB-78 > 100 µM | U-251 > 100 µM

C[C@]12CCC(=O)C=C1CC[C@@H]1C2CC[C@]2(C)c3nn(-c4ccccc4)nc3CC12 (some centres not stated)
inactive: CCRF-CEM > 100 µM | COLO 205 > 100 µM | DMS-273 > 100 µM | HCT-116 > 100 µM | HL-60 > 100 µM | HOP-92 > 100 µM | HT-29 > 100 µM | IGROV-1 > 100 µM | LXFL 529 > 100 µM | M14 > 100 µM | Malme-3M > 100 µM | NCI-H23 > 100 µM | OVCAR-5 > 100 µM | SF-268 > 100 µM | SNB-19 > 100 µM | SNB-78 > 100 µM | U-251 > 100 µM | UO-31 > 100 µM

CC(=O)Nc1ccc(/C=N\N2C(=O)c3ccccc3C2=O)cc1
inactive: CAKI-1 > 100 µM | CCRF-CEM > 100 µM | DMS-273 > 100 µM | HCT-116 > 100 µM | HL-60 > 100 µM | HOP-92 > 100 µM | HT-29 > 100 µM | IGROV-1 > 100 µM | LXFL 529 > 100 µM | M14 > 100 µM | Malme-3M > 100 µM | NCI-H23 > 100 µM | OVCAR-5 > 100 µM | SF-268 > 100 µM | SNB-19 > 100 µM | SNB-78 > 100 µM | UO-31 > 100 µM

Cc1ccccc1NC(=O)C(=O)CC(=O)c1c(C)[n+]([O-])c2ccccc2[n+]1[O-]
inactive: CAKI-1 > 100 µM | COLO 205 > 100 µM | DMS-273 > 100 µM | HCT-116 > 100 µM | HT-29 > 100 µM | IGROV-1 > 100 µM | LXFL 529 > 100 µM | M14 > 100 µM | Malme-3M > 100 µM | NCI-H23 > 100 µM | OVCAR-5 > 100 µM | SF-268 > 100 µM | SNB-19 > 100 µM | SNB-78 > 100 µM | U-251 > 100 µM | UO-31 > 100 µM

COc1ccccc1-n1c(NN)nc2ccc(Br)cc2c1=O
inactive: CAKI-1 48.1 µM | CCRF-CEM 23.7 µM | COLO 205 45.9 µM | DMS-273 35.1 µM | HL-60 21.3 µM | HT-29 38.2 µM | IGROV-1 38.2 µM | LXFL 529 24.3 µM | M14 40.6 µM | Malme-3M 39.4 µM | NCI-H23 28.1 µM | OVCAR-5 18.2 µM | SF-268 32.4 µM | SNB-19 37 µM | SNB-78 47.6 µM | U-251 35.4 µM | UO-31 35.1 µM

CC1(C)CC23C(=O)N(c4ccccc4)C(Nc4ccccc4)=NC2=CC(C#N)=C(C#N)C3O1 (configuration not stated)
inactive: CAKI-1 23.2 µM | CCRF-CEM 48.6 µM | COLO 205 39.9 µM | HCT-116 89.5 µM | HL-60 27.4 µM | HOP-92 11.2 µM | HT-29 26.9 µM | IGROV-1 > 100 µM | LXFL 529 > 100 µM | M14 > 100 µM | Malme-3M 46.3 µM | NCI-H23 34.9 µM | OVCAR-5 > 100 µM | SF-268 > 100 µM | SNB-19 89.9 µM | SNB-78 > 100 µM | U-251 > 100 µM | UO-31 18.6 µM
